One assay addresses T1, Human MetAP-2 (Homo sapiens, UniProt P50579).
T1 construct: made in house
In words: Inhibition of human MetAP-2 (recombinant enzyme, Met-Ala-Ser substrate). The assay is classed as biochemical. The conditions noted are these: recombinant MetAP-2, substrate Met-Ala-Ser 1 mM, 37° C., Hepes pH 7.4, 0.5 mM CoCl2. The method, then: By way of example, the biological activity of the compounds is evaluated by measuring their inhibitory activity on methionine aminopeptidase MetAP-2 (Li, X., Chang, Y-H. Biochem. Biophys. Res. Comm. 1996, 227, 152).
The biological activity is characterized in this system by determining the concentration of compound required to inhibit 50% of the enzymatic activity (IC50). The test protocol used is described in Example 13 of the present patent application.
a) Measurement of the Inhibition of Human MetAP-2
Recombinant MetAP-2 is obtained and purified according to the method described by Li and Chang (Li, X.; Chang, Y-H. Biochem. Biophys. Res. Comm. 1996, 227, 152).
The tests are carried out in buffer A (Hepes buffer, 10 mM, pH 7.4, 0.5 mM CoCl2 containing 10% glycerol) using the peptide Met-Ala-Ser as substrate (Km=0.7 mM).
a. The enzymatic activity is measured as follows: the substrate solution is added to a suitable amount of enzyme such that the final concentration is 1 mM, and the mixture is incubated at 37° C. for 10-30 minutes. The reaction is quenched by adding 100 mM EDTA solution or by heating in a boiling water bath for two minutes.
b. The N-terminal methionine released is quantified by measuring the absorbance at 450 nm (A450) by incubating for 30-60 minutes at 37° C. with the following coloured reagent: buffer B (Hepes buffer, 10 mM, pH 7.4) (Ben-Bassat A.; Bauer K.: Chang S. Y. et al., J. Bacteriol. 1987, 169, 751-757), containing 70 μg/mL of amino acid oxidase, 10 μg/mL of horseradish peroxidase and 1 mM of o-dianisidine. The activities are expressed as mmol of methionine produced, using the conversion factor of 1 mmol of methionine/mL=8.6A450
Determination of the IC50
The IC50 values are determined by incubating the enzyme and its substrate (using the experimental conditions described above) with increasing concentrations of inhibitor.
The control is 5-methoxy-4-[2-methyl-3-(3-methylbut-2-enyl)oxiranyl]-1-oxaspiro[2.5]octan-6-yl 4-methoxycinnamate described in the publication by Han et al., Bioorganic & Medicinal Chemistry Letters, 2000, 10, 39-43.

Assay [1] has as its system Endothelial Cells Isolated from the Vein of Umbilical Cords. Briefly: Inhibition of endothelial cell proliferation by DNA synthesis reinitiation (b-Fgf, tritiated thymidine). The conditions noted are these: b-Fgf-stimulated tritiated thymidine incorporation, 24 h at 37° C., serum free medium, IC50 determined graphically. The assay is classed as cell-based. How it is done: The anti-angiogenic activity of the compounds according to the invention may also be measured by means of their capacity to inhibit the proliferation of endothelial cells. This activity is determined in Example 13 of the present patent application.
b) Measurement of the Inhibition of the Proliferation in Endothelial Cells Isolated from the Vein of Umbilical Cords (Prepared at the Laboratory) by DNA Synthesis Reinitiation
The cells are seeded in complemented SFM medium (Gibco). When the cells reach the confluence, the growth is stopped by 2 washes in serum free medium and handing-over in serum free medium for 24 h. After trypsination, they are seeded in 48 wells plates: 50.000 cells per well in 500 μl.
The reinitiation of DNA synthesis is performed 6 hours after, in presence of 50 μg/ml b-Fgf by well with increasing amounts of inhibitor to be tested in the serum free medium and containing the tritiated thymidine (b-Fgf is prepared at the laboratory).
The cells are incubated 24 h at 37° C. and the radioactivity is measured with a Wallac counter. Each test is performed in duplicate and the result is the average of the counted number of cpms. The curve showing measured radioactivity function to increasing amount of inhibitors allows to determine graphically the value of IC50.

T1 sequence (P50579 whole entry): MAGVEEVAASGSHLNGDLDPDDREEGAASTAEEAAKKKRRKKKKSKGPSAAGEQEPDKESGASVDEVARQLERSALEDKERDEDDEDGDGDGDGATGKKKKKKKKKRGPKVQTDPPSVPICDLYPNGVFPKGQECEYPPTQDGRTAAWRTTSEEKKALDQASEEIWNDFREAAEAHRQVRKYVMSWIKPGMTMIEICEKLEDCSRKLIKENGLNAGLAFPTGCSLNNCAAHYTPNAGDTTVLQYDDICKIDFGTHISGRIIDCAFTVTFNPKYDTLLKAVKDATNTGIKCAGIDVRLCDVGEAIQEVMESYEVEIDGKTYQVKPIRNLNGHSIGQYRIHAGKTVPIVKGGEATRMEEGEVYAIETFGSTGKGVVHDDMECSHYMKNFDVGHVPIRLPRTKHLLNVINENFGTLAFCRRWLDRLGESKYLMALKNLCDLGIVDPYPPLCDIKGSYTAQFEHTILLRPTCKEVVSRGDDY

For `COc1ccc(C=CC(=O)OC2CCC3(CO3)C(C3(C)OC3CC=C(C)C)C2OC)cc1` (centres unmarked) [Control, 5-methoxy-4-[2-methyl-3-(3-methylbut-2-enyl)oxiranyl]-1-oxaspiro[2.5]octan-6-yl 4-methoxycinnamate], the half-inhibitory concentration (IC50) on Human MetAP-2 worked out at 35 nM; in assay [1], 10 nM.

In the case of `COc1ccc(/C=C/C(=O)O[C@@H]2CC[C@]3(CO3)[C@@H](/C(C)=C/CCC(C)C)[C@@H]2OC)cc1` [Example 2], the IC50 at Human MetAP-2 was 15 nM; in assay [1] (Endothelial cell), 1 nM. As for `CO[C@@H]1[C@H](OC(=O)/C=C/C=C/C=C/C=C/C(=O)O)CC[C@]2(CO2)[C@H]1[C@@]1(C)O[C@@H]1CC=C(C)C` [Fumagillin], the half-inhibitory concentration (IC50) at Human MetAP-2 amounted to 10 nM.
